The target of data set [1] is CYP2C19 (Homo sapiens, UniProt P33261). The experiment in a line: CYP inhibition CYP2C19.
The target in data set [2] is CYP2C9 (Homo sapiens, UniProt P11712). The experiment in a line: CYP inhibition CYP2C9.
The target of data set [3] is T1, D4 (Homo sapiens, UniProt P21917).
T1 sequence (P21917 1-419): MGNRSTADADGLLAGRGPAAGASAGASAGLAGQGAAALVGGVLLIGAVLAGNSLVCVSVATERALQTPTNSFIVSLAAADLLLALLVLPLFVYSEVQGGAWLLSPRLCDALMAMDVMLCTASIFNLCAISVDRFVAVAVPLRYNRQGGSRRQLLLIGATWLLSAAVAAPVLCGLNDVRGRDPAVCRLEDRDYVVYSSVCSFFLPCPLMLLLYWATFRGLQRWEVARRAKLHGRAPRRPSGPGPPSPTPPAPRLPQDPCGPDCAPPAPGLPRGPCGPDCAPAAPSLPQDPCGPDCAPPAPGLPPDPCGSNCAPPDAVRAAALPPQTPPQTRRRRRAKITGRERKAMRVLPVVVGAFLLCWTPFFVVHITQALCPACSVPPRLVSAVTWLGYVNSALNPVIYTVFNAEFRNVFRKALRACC
In words: Compound Binding Profiles: D4. The note with it: read-out: D4 binding class.

Data set [4] deals with more than 70 tested receptors. The note with it: versus 5-HT6.
The target of data set [5] is H1 (Homo sapiens, UniProt P35367). The experiment in a line: Compound Binding Profiles: H1. As to conditions: * = Estimated IC50.
Sequence of H1 (P35367 whole entry): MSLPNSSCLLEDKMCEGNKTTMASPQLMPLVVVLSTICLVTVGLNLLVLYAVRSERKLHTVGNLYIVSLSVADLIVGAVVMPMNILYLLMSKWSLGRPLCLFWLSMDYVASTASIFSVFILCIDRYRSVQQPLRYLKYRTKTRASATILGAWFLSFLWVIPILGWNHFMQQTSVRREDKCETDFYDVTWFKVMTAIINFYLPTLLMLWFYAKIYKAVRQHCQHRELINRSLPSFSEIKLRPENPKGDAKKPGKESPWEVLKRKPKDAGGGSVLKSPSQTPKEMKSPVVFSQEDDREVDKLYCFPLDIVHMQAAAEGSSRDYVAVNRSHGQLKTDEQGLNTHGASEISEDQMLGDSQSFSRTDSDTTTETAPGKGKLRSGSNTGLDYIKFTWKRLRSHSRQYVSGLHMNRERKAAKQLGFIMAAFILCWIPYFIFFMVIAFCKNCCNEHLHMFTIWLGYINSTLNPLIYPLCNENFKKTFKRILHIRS
Data set [6] concerns the target 5HT2A (Homo sapiens, UniProt P28223). The experiment in a line: Compound Binding Profiles: 5HT2A. The note with it: * = Estimated IC50.
The target of data set [7] is T2, 5HT2C (Homo sapiens, UniProt P28335).
T2 sequence (P28335 33-458): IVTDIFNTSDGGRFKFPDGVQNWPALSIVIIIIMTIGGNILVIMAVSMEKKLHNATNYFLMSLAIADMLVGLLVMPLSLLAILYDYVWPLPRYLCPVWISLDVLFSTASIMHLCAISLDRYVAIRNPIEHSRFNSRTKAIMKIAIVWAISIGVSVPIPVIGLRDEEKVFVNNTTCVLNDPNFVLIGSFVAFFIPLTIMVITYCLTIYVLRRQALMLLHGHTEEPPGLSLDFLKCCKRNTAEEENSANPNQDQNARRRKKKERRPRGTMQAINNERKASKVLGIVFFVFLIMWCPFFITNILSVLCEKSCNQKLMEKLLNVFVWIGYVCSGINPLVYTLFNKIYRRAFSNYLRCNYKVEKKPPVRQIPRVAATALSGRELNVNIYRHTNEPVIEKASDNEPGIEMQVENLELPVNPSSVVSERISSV
The experiment in a line: Compound Binding Profiles: 5HT2C. The note with it: * = Estimated IC50.

Results on one compound are retold here after patent US8604021B2, “Substituted arylamine compounds and methods of treatment” (priority 2005, dated 2013).

Sequence of CYP2C19 (P33261 whole entry): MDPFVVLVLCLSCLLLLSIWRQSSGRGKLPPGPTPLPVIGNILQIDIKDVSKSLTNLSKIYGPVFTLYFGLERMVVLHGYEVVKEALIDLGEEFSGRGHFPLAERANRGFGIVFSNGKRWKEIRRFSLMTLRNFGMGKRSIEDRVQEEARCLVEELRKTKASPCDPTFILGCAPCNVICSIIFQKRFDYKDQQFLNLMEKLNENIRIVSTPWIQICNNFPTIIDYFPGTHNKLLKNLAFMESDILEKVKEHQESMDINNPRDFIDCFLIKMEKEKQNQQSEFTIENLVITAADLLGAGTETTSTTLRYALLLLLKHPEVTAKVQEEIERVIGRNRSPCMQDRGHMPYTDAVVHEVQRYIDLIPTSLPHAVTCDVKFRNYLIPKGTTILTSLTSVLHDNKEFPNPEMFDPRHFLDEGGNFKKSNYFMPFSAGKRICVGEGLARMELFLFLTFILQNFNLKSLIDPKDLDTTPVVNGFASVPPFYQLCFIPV
Sequence of CYP2C9 (P11712 whole entry): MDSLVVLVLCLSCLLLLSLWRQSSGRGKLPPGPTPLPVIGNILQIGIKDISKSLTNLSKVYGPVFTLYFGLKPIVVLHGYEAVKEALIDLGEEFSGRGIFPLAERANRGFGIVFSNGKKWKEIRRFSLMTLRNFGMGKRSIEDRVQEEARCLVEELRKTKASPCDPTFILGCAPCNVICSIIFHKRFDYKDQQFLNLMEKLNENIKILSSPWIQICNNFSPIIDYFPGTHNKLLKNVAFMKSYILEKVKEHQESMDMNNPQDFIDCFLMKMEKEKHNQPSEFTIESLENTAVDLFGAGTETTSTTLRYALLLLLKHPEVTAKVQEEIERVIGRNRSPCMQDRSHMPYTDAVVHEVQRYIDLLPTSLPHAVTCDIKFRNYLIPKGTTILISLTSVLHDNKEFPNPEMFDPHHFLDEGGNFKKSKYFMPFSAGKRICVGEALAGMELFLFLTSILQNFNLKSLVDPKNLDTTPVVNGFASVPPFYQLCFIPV
Sequence of 5HT2A (P28223 whole entry, species assumed): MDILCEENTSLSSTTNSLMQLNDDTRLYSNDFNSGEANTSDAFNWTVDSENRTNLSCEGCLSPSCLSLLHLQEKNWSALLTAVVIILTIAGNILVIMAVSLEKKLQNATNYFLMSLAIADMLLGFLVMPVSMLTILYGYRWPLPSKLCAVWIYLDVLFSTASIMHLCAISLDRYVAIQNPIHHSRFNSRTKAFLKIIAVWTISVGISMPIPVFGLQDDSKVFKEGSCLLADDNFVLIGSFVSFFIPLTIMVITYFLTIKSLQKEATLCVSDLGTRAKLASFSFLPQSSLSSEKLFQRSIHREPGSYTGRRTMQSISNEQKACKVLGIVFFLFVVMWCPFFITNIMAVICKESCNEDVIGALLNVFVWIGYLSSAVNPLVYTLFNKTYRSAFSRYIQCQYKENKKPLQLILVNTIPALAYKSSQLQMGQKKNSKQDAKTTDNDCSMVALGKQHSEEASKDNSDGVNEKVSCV

For the compound `COc1cc(Cl)cc(C(C)Nc2cc(N3CCNCC3)ccc2S(C)(=O)=O)c1OC.Cl` (stereo not shown) [Compound A, [1-(5-Chloro-2,3-dimethoxy-phenyl)-ethyl]-(2-methanesulfonyl-5-piperazin-1-yl-phenyl)-amine hydrochloride], the IC50 (as a rule, the point on the concentration scale where inhibition reaches its midpoint) in data set [1] is over 7.5 µM; in data set [2], over 7.5 µM; in data set [5], 22 µM; in data set [6] it was 2.5 µM; in data set [7], 3.8 µM. The Ki in data set [3] lay in the range of 0.1 to 1 µM. Moreover, the “safety margin (selectivity) to more than 70 tested receptors” value in data set [4] is given as over 100 fold.
